In patent publication US20050249808A1, “NSAIDs compositions containing tartaric acid” (priority 2001, published 2005):
Where two headings read alike, the source gives them in different places.

Legend:
[1] = parts of drug dissolving in 10,000 parts of water; cited from earlier work
[2] = cited from earlier work; for AUC0-2h: 600 mg ibuprofen dose
[3] = Oral bioavailability of ibuprofen crushed tablets in control rats; format: in vivo; settings: male, Sprague-Dawley, rat, plasma, 20 mg/kg, oral 20 mg/kg ibuprofen as crushed tablets, read-out: AUC (0-8)
Method: The animal models are Adult male Sprague-Dawley rats with body weight of 250-300 g, and which were cared for in accordance with the principles and guidelines of the Canadian Council of Animal Care. All rats were catheterized in the right jugular vein for sample collection.
The tablets were crushed gently and small pieces were administered into the stomach via a plastic tube followed by 0.5 mL tap water. […] They had free access to water.

AUC(0-t) [3]	Compound	solubility in water [1]	change in mean time to peak concentration caused by surgery ([2]; 200 mg and 600 mg doses, dental surgery)	AUC0-6h, effect of surgery ([2]; dental surgery)	AUC0-2h ([2]; after dental extraction)	AUC0-2h ([2]; before dental extraction)
139000 ng·h/mL	CC(C)Cc1ccc(C(C)C(=O)O)cc1 (racemic) [ibuprofen, (±)-2-(4-Isobutylphenyl)propionic acid]	less than 1 part	two hour delay	significantly reduced		
	CC(C)Cc1ccc([C@@H](C)C(=O)O)cc1 [R-ibuprofen, R(−)-2-(4-isobutylphenyl)propionic acid]				5800 ± 7100 ng·h/mL	14400 ± 9500 ng·h/mL
	CC(C)Cc1ccc([C@H](C)C(=O)O)cc1 [S-ibuprofen, S(+)-2-(4-isobutylphenyl)propionic acid]				7200 ± 5500 ng·h/mL	14200 ± 6100 ng·h/mL
